Measurements published in patent US11939344B2, “Spirocyclic compounds” (ASTRAZENECA AB, priority 2021, dated 2024).

Legend:
HCT116 KO-MTAP cells [1] = assay: Cell proliferation assay (Alamar Blue), MTAP KO cells; assay type: cell-based; conditions: Homo sapiens
Protocol: (§1) Cell Proliferation Assays:
(§2) A day 0 plate is created in parallel but not dosed, after plating 4 μl of Alamar Blue (Thermo #DAL1100) and incubate for 3 h at 37 C, 5% CO2.
(§3) The dosed cell plates were then incubated for 5 days at 37° C. before adding Alamar blue and being read in the Envision following same protocol as for first plate.

[2] = molecular target: human heterooctameric PRMT5:MEP50 enzyme complex (Homo sapiens, UniProt O14744); assay: biochemical
Protocol: MTase-GIlo™ PRMT5 Luminescence Assays (PRMT5 Enzyme Assays)
An Mtase-Glo™ methyltransferase Luminescence assay was employed to monitor the conversion of S-Adenosyl methionine (SAM) to S-Adenosyl Homocysteine (SAH) by recombinant PRMT5:MEP50 enzyme complex in the presence or absence of the 5′-Methylthioadenosine (MTA). […] The reaction buffer contained 20 mM Bicine (pH 7.60), 25 mM NaCl, 1 mM DTT and 0.1% (w/v) CHAPS.
All wells were backfilled with the appropriate volume of DMSO to achieve a final concentration of 1% v/v in a 3 μl final assay volume.
After 5 h incubation in room temperature, 1 μL of 0.5% (v/v) TFA was added to each well to quench the methylation reaction.
Data was analysed and the IC50 values were calculated using the Genedata Screener® software.

HCT116 WT cells [3] = assay: PRMT5 cell SDMA assay, MTAP WT cells; assay type: cell-based; conditions: Homo sapiens
HCT116 KO-MTAP cells [4] = assay: PRMT5 cell SDMA assay, MTAP KO cells; assay type: cell-based; conditions: Homo sapiens
HCT116 WT cells [5] = assay: Cell proliferation assay (Alamar Blue), MTAP WT cells; assay type: cell-based; conditions: Homo sapiens, HCT-116, 120 h, 5 days
Protocol: as §1, §2, §3

[6] = HCT-116, 120 h, HCT116 MTAP KO, 5 days, read-out: Cell proliferation IC50 (μM) (MTAP KO)
[7] = HCT-116, HCT116 MTAP WT, 48 hours, read-out: Cell SDMA IC50 (μM) (MTAP WT)
[8] = HCT-116, HCT116 MTAP KO, 48 hours, read-out: Cell SDMA IC50 (μM) (MTAP KO)

human heterooctameric PRMT5:MEP50 enzyme complex, sequence (O14744 whole entry): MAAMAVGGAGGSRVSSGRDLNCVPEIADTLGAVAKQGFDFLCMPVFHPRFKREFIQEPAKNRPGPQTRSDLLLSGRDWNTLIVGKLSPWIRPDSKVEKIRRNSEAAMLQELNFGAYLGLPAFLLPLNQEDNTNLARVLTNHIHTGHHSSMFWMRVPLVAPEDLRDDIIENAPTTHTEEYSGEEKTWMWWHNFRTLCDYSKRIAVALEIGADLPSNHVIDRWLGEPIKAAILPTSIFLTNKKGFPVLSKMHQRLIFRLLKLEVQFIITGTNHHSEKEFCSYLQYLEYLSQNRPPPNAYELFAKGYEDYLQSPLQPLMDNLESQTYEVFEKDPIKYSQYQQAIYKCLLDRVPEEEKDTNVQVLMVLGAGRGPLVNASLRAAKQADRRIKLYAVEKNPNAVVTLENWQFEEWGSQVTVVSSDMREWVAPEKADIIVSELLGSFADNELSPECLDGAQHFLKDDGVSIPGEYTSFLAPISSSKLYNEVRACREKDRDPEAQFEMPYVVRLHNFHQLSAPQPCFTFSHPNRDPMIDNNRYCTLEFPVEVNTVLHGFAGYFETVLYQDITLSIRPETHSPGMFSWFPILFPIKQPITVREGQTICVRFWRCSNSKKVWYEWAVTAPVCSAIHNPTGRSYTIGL
human heterooctameric PRMT5:MEP50 enzyme complex, sequence (Q9BQA1 whole entry partner): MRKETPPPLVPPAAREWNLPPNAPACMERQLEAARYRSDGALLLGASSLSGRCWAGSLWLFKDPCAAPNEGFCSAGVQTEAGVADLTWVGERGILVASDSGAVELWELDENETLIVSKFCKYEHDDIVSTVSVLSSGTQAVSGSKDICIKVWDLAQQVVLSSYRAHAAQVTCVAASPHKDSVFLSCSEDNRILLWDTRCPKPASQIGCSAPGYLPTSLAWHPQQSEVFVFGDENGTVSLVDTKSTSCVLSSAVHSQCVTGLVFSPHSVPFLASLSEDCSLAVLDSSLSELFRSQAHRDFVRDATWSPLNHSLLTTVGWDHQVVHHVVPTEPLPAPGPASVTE

| IC50 (HCT116 KO-MTAP cells [1]; [6]) | IC50 (HCT116 KO-MTAP cells [1]; HCT-116, column 6, read-out: Cell proliferation IC50 in MTAP KO cells) | IC50 [2] | IC50 (HCT116 WT cells [3]; HCT-116, column 5, read-out: Cell SDMA IC50, HCT116 wild type cells) | IC50 (HCT116 WT cells [3]; [7]) | IC50 (HCT116 KO-MTAP cells [4]; HCT-116, column 4, read-out: Cell SDMA IC50, MTAP knock out HCT116 cells) | IC50 (HCT116 KO-MTAP cells [4]; [8]) | IC50 (HCT116 WT cells [5]) | SMILES |
| --- | --- | --- | --- | --- | --- | --- | --- | --- |
| 0.32 µM | 0.32 µM | 61 nM | 0.56 µM | 0.56 µM | 0.013 µM | 0.013 µM | > 30 µM | C#CCN1CC[C@@]2(C1=O)c1ccc(F)cc1C(=O)N2Cc1cc2nc(N)c(F)cc2[nH]1 [Example 3, (S)-2-((5-Amino-6-fluoro-1H-pyrrolo[3,2-b]pyridin-2-yl)methyl)-5-fluoro-1′-(prop-2-yn-1-yl)spiro[isoindoline-1,3′-pyrrolidine]-2′,3-dione] |
| 0.29 µM |  |  |  | 0.093 µM |  | 0.0031 µM | 2.3 µM | CC1(CN2CC[C@@]3(C2=O)c2ccc(F)cc2C(=O)N3Cc2cc3nc(N)cc(C#N)c3[nH]2)CC1 [Example 26, (S)-5-Amino-2-((5-fluoro-1′-((1-methylcyclopropyl)methyl)-2′,3-dioxospiro[isoindoline-1,3′-pyrrolidin]-2-yl)methyl)-1H-pyrrolo[3,2-b]pyridine-7-carbonitrile] |
| 0.36 µM |  |  |  | 0.17 µM |  | 0.0047 µM | > 30 µM | Nc1nc2cc(CN3C(=O)c4cc(F)ccc4[C@]34CCN(CCOC(F)(F)F)C4=O)[nH]c2cc1Cl [Example 27, (S)-2-((5-Amino-6-chloro-1H-pyrrolo[3,2-b]pyridin-2-yl)methyl)-5-fluoro-1′-(2-(trifluoromethoxy)ethyl)spiro[isoindoline-1,3′-pyrrolidine]-2′,3-dione] |
| 0.13 µM |  |  |  | 0.071 µM |  | 0.0028 µM | 1.4 µM | Cc1cc(N)nc2[nH]c(CN3C(=O)c4cc(F)ccc4[C@]34CCN(Cc3cc(F)c(F)cc3F)C4=O)cc12 [Example 28, (S)-2-((6-Amino-4-methyl-1H-pyrrolo[2,3-b]pyridin-2-yl)methyl)-5-fluoro-1′-(2,4,5-trifluorobenzyl)spiro[isoindoline-1,3′-pyrrolidine]-2′,3-dione] |
